Test results from ChEMBL document CHEMBL1201862, “PubChem BioAssay data set” (2004).
Each block holds one compound with its values, some of them ahead of it. Calls of active or inactive are those of the source.

Key:
[1] = target: Melanin-concentrating hormone receptor 1 (Homo sapiens, UniProt Q99705); assay: Late-stage fluorescence-based counterscreen for antagonists of the G-protein coupled receptor 7 (GPR7): cell-based dose response assay to identify antagonists of the melanin-concentrating hormone receptor 1 (MCHR1) Set 6.; format: functional
[2] = target: T1, Neuropeptides B/W receptor type 1 (Homo sapiens, UniProt P48145); assay: human NPBW1 receptor blockade, IC50 – cell-based, fluorescence, dose response, set 6, late-stage follow-up (AID 588583); format: functional
T1 sequence (P48145 whole entry): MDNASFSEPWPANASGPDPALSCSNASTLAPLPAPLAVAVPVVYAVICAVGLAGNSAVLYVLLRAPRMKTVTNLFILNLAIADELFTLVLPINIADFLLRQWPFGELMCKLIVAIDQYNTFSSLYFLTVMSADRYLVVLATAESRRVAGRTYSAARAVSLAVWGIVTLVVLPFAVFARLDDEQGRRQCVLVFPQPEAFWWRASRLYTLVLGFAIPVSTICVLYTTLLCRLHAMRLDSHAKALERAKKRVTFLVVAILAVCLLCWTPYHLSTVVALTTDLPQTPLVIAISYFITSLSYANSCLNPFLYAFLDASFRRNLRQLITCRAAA

[3] = target: T2, Small ubiquitin-related modifier 2 (Homo sapiens, UniProt P61956); assay: disruption of SUMO2 interaction with SIM peptide – biochemical, fluorescence polarization, uHTS hits, selectivity assay for SUMO1 interaction inhibitor project, dose response (AID 624385); format: functional; details: read-out: IC50_Mean
[4] = target: T3, Small ubiquitin-related modifier 1 (Homo sapiens, UniProt P63165); assay: SUMO1 protein interaction blockers, potency – biochemical, fluorescence polarization, uHTS hits, dose response (AID 624382); format: functional; details: read-out: IC50_Mean
[5] = target: T2, Small ubiquitin-related modifier 2; assay: SUMO2 binding disruption by SUMO1 hits – biochemical, FRET, human SUMO2, uHTS hits, selectivity assay for SUMO1 interaction inhibitor project, dose response (AID 624384); format: functional; details: read-out: IC50_Mean
[6] = target: T3, Small ubiquitin-related modifier 1; assay: SUMO1 protein-protein binding blockers, potency – biochemical, FRET, dose response (AID 624383); format: functional; details: read-out: IC50_Mean
[7] = Trypanosoma cruzi growth suppression in host cells – NIH3T3 host cells, beta-gal luminescence, confirmation (AID 2044); format: functional, cell-based;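 note: intracellular parasites grown in NIH/3T3 mouse fibroblasts as host cells; luminescent beta-galactosidase reporter signal from transgenic T. cruzi replicating inside host cells; inhibitors lower the luminescence signal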
[8] = viability of PTEN-deleted HCT116 cells – cell-based, HCT116 PTEN knockout, dose response (AID 1047); format: functional;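 note: HCT116 colon tumor cells with PTEN knocked out; cells exposed to compound for 60 hours before readout; potency for loss of cell viability measured by luminescence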
[9] = NIH3T3 cell viability loss – ATP luminescence, mouse fibroblasts, counter-screen, dose response (AID 2010); format: functional, cell-based;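 note: cells exposed to compound for about 90 hours before reading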
[10] = viability of HCT116 lacking mutant beta-catenin – cell-based, human colon tumor, dose response (AID 1045); format: functional;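 note: HCT116 colon tumor cells with beta catenin knocked out; cells exposed to compound for 60 hours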
[11] = target: T4, High affinity choline transporter 1 (Homo sapiens, UniProt Q9GZV3); assay: human choline transporter blockers, potency – cell-based, 5-point CRC, membrane potential dye, dose response (AID 504840); format: functional
T4 sequence (Q9GZV3 whole entry): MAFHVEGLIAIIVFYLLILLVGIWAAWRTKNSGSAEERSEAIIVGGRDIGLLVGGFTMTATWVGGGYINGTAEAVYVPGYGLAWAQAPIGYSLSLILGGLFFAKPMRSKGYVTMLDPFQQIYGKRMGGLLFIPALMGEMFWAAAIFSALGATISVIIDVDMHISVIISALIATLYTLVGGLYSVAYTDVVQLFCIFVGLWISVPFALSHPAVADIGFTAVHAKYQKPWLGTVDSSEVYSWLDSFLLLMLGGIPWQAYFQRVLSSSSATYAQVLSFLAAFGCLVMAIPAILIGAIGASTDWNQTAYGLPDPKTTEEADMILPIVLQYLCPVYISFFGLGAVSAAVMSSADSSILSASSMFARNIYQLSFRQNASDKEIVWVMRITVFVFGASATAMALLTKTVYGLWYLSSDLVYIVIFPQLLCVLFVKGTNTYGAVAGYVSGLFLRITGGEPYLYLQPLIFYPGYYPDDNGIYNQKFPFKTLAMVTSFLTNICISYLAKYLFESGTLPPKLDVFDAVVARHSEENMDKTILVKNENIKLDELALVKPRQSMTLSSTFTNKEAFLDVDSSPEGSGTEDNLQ

[12] = target: Delta-type opioid receptor (Homo sapiens, UniProt P41143); assay: Counterscreen for agonists of heterodimerization of the mu 1 (OPRM1) and delta 1 (OPRD1) opioid receptors: Luminescence-based cell-based high throughput dose response assay to identify agonists of OPRD1 homodimerization. [Related pubchem assays (depositor defined):AID504326, AID504355, AID504692, AID504904, AID504905]; format: functional
Mu-type opioid receptor = Mu-type opioid receptor (Homo sapiens, UniProt P35372); assay: Counterscreen for agonists of heterodimerization of the mu 1 (OPRM1) and delta 1 (OPRD1) opioid receptors: Luminescence-based cell-based high throughput dose response assay to identify agonists of OPRM1 homodimerization.; format: functional;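 note: U2OS cells expressing OPRM1 and beta-arrestin as split beta-galactosidase partners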
[13] = target: 5-hydroxytryptamine receptor 5A (Homo sapiens, UniProt P47898); assay: Counterscreen for agonists of OPRM1-OPRD1 heterodimerization: luminescence-based cell-based high throughput dose response assay to identify agonists of 5-hydroxytryptamine (serotonin) 5A receptor (HTR5A). [Related pubchem assays (depositor defined):AID504326, AID504355, AID504692, AID504904, AID504905]; format: functional
[14] = target: T4, High affinity choline transporter 1; assay: human choline transporter blockers, potency – cell-based, 10-point CRC, membrane potential dye, dose response (AID 588401); format: functional;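 note: membrane potential dye fluorescence of choline-evoked depolarization via CHT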
[15] = reduction of Shn3 3'UTR-driven luciferase in osteoblasts – cell-based, Clone20 osteoblasts, firefly luciferase, cherry-picked, dose response (AID 624132); format: functional;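 note: firefly luciferase luminescence from reporter carrying the Shn3 3'UTR in osteoblasts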
[16] = loss of viability in HepG2 cells – cell-based, CellTiter-Glo, cherry-picked, cytotoxicity control for Shn3 inhibitor project, dose response (AID 624134); format: functional
[17] = non-specific 3'UTR reporter inhibition in Clone20-Shn3RL – cell-based, Renilla luciferase, cherry-picked, counter-screen for Shn3 inhibitor project, dose response (AID 624133); format: functional
Protein Wnt-3a = Protein Wnt-3a (Mus musculus, UniProt P27467); assay: antagonism of Wnt3a pathway luciferase reporter – Wnt-LIGHT cells, luminescence, selectivity assay for Gli-SUFU antagonist project, dose response (AID 651570); format: functional; details: read-out: IC50_Mean;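 note: Wnt-LIGHT reporter cells stimulated with conditioned medium from Wnt3a-producing cells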
Aurora kinase A = target: T5, Aurora kinase A (Homo sapiens, UniProt O14965); format: functional;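 note: value from the Navigating the Kinome kinase panel profiling, panel entry STK6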
T5 sequence (O14965 whole entry): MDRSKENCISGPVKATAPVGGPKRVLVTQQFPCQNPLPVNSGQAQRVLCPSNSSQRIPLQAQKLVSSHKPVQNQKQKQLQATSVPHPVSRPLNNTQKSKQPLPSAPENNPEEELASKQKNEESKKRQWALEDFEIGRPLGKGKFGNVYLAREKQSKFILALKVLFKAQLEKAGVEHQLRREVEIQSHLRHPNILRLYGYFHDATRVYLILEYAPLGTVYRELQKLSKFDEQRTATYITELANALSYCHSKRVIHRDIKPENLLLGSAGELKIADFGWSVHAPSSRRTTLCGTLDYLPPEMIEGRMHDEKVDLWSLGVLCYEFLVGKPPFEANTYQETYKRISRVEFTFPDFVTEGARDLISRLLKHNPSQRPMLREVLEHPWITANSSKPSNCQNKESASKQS

[18] = target: Vascular endothelial growth factor receptor 2 (Homo sapiens, UniProt P35968); format: functional
Aurora kinase B = Aurora kinase B (Homo sapiens, UniProt Q96GD4); format: functional
Bcl-2-related protein A1 = target: T6, Bcl-2-related protein A1 (Mus musculus, UniProt Q07440); format: functional;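 note: confirmatory dose–response counterscreen on Bfl-1, used to check hits from a UBC13 polyubiquitin inhibitor campaign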
T6 sequence (Q07440 whole entry): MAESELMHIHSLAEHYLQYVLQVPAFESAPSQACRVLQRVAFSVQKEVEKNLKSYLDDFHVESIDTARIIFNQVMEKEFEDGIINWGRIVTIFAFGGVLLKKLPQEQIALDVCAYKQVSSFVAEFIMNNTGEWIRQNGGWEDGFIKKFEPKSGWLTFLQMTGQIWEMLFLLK

[19] = target: T7, Ubiquitin-conjugating enzyme E2 N (Homo sapiens, UniProt P61088); format: functional
T7 sequence (P61088 whole entry): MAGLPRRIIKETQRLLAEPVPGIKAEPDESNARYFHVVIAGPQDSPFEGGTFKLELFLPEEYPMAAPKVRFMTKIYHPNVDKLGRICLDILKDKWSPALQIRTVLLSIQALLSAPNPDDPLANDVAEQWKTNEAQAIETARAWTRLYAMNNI

[20] = target: T7, Ubiquitin-conjugating enzyme E2 N; format: functional; remark: listed apart in the source
[21] = target: Arf-GAP with SH3 domain, ANK repeat and PH domain-containing protein 1 (Homo sapiens, UniProt Q9ULH1); format: functional;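 note: biochemical fluorescence polarization dose–response screen measuring inhibition of ASAP1; ASAP1 GAP domain stimulating GTP hydrolysis by truncated human ARF1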
Arf-GAP with SH3 domain, ANK repeat and PH domain-containing protein 1, sequence (Q9ULH1 whole entry, the tested form may be a part): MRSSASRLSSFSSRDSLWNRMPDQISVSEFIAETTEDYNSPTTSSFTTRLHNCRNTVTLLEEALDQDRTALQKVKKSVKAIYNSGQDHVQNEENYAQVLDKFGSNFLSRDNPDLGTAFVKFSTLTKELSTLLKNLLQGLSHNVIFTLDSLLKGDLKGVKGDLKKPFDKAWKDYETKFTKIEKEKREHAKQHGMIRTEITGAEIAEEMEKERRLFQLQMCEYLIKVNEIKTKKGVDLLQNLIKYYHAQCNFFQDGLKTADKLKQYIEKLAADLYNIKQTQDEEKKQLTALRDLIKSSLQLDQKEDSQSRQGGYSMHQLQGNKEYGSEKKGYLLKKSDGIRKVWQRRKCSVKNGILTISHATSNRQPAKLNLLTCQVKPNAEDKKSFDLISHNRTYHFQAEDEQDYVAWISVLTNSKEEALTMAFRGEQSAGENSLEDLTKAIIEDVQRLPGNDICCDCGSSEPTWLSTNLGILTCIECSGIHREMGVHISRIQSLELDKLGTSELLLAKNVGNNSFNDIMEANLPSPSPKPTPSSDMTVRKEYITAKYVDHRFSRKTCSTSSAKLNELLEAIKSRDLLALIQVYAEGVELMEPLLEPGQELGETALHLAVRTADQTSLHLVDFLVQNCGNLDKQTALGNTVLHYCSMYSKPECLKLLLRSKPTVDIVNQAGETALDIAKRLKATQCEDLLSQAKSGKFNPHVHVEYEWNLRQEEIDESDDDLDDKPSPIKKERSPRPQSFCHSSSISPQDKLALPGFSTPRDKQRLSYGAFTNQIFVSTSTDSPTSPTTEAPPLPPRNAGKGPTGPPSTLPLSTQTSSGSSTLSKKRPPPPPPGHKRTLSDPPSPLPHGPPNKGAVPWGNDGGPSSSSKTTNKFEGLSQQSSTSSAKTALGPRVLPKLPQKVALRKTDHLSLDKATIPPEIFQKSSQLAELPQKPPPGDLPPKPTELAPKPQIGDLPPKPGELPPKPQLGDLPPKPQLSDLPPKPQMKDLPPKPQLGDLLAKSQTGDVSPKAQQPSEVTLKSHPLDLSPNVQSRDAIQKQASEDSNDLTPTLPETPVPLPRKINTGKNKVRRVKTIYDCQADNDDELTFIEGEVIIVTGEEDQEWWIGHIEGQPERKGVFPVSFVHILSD

T2 sequence (P61956 whole entry): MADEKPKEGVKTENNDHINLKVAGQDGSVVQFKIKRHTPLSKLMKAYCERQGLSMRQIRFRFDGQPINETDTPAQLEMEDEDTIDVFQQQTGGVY
Melanin-concentrating hormone receptor 1, sequence (Q99705 whole entry): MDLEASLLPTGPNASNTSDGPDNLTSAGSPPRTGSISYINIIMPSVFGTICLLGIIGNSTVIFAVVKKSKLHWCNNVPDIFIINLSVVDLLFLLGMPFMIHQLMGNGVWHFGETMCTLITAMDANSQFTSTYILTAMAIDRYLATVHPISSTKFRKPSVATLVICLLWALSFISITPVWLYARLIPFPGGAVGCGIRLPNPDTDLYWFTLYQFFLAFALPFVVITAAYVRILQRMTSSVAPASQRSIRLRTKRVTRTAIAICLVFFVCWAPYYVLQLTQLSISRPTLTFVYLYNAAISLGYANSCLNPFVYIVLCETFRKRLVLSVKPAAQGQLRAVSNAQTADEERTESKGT
T3 sequence (P63165 whole entry): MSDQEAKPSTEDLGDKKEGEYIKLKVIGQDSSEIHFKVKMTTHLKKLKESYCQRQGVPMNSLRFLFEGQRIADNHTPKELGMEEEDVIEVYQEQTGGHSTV
Protein Wnt-3a, sequence (P27467 whole entry): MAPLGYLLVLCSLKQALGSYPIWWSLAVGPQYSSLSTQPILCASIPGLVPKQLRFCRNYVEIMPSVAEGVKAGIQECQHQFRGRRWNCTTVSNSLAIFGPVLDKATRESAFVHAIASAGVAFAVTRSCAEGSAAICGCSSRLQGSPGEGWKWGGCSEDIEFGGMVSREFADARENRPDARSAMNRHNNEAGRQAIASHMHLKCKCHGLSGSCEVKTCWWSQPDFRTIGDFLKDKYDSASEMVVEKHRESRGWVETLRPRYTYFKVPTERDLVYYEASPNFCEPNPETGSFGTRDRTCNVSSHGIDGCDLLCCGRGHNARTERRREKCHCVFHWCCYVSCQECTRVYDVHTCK
5-hydroxytryptamine receptor 5A, sequence (P47898 whole entry): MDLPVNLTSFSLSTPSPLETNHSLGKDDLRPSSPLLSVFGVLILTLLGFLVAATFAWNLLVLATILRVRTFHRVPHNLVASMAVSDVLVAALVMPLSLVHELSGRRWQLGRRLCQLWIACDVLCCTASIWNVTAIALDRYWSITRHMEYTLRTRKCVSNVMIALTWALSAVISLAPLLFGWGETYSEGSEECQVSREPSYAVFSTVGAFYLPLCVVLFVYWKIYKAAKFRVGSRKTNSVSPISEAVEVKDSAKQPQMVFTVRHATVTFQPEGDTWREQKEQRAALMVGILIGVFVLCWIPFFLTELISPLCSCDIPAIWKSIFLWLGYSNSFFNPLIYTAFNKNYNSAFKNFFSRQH
Mu-type opioid receptor, sequence (P35372 whole entry): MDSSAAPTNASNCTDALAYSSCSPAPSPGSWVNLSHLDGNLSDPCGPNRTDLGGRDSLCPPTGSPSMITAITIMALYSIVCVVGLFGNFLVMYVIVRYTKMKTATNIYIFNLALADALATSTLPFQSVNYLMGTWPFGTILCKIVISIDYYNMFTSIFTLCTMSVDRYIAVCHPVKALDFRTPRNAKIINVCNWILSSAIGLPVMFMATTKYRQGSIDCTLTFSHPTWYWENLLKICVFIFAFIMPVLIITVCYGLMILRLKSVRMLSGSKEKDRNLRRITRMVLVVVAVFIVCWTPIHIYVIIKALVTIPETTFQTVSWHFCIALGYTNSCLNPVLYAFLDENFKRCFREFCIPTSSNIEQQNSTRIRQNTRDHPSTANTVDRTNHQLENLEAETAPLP
Delta-type opioid receptor, sequence (P41143 whole entry): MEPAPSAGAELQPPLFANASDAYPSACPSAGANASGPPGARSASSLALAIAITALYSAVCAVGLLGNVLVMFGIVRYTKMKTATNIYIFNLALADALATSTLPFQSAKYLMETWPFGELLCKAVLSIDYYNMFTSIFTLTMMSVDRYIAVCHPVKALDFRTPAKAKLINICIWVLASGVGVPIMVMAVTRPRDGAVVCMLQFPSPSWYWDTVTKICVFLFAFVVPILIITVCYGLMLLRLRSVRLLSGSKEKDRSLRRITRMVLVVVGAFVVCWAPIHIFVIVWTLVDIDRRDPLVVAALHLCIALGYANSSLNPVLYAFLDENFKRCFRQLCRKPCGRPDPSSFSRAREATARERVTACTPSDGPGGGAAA
Aurora kinase B, sequence (Q96GD4 whole entry): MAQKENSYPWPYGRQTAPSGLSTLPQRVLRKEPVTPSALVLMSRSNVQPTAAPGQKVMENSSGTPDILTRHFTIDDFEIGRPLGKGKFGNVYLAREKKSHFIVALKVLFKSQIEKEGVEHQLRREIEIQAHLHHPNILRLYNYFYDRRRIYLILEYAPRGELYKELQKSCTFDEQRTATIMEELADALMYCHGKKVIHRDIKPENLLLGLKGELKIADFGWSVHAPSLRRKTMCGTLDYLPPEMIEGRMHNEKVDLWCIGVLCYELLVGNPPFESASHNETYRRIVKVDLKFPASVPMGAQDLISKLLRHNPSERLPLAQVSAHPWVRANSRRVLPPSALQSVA
Vascular endothelial growth factor receptor 2, sequence (P35968 whole entry): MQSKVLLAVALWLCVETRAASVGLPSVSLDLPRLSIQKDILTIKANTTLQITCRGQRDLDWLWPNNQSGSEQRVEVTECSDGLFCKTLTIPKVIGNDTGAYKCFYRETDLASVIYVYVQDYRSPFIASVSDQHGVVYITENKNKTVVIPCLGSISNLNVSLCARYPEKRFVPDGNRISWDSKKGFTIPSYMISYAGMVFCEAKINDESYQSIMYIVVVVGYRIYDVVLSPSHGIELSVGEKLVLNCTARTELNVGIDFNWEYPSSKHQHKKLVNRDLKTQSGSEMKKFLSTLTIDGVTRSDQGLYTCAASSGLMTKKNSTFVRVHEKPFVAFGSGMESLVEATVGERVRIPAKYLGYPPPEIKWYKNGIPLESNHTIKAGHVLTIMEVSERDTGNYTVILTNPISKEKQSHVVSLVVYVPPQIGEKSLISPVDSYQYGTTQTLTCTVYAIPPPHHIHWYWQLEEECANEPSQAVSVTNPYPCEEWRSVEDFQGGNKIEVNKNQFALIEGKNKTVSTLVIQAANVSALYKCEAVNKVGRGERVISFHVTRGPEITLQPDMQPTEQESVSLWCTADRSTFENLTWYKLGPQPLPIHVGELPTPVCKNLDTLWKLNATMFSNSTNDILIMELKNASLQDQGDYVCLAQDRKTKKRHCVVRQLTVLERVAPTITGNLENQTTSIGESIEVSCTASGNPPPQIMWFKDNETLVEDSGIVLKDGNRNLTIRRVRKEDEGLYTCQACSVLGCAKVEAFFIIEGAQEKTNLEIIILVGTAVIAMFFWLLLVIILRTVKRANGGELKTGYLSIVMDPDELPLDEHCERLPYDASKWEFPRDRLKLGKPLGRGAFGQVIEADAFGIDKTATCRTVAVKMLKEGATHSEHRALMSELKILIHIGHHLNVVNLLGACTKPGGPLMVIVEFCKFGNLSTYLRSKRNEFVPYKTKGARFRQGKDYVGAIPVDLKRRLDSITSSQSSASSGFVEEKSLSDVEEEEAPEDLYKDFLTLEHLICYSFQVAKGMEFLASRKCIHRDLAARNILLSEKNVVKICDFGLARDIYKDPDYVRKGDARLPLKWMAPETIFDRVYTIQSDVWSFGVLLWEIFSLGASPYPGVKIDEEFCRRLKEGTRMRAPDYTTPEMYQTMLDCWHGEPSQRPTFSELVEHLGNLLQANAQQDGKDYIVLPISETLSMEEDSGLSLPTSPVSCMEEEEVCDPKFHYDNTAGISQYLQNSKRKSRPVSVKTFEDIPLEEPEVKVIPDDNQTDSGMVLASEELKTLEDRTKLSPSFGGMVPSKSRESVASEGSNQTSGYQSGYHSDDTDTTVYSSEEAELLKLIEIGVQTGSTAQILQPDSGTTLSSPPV

IC50 [1]: 1.26 µM (active)
IC50 [2]: 1.26 µM (active)
SMILES: N#CC(c1ccccc1[N+](=O)[O-])c1c(Cl)cnn(Cc2cccc3ccccc23)c1=O (stereo not given)

IC50 (Protein Wnt-3a): 11 µM (active)
SMILES: CCCN1CCC(=O)N([C@H](CSc2ccc(OC)cc2)Cc2ccccc2)CC1

Ki (Aurora kinase A): > 2 µM (inactive)
Ki [18]: 3.16 µM (active)
Ki (Aurora kinase B): 3.98 nM (active)
SMILES: O=S(=O)(Nc1ccc2c(c1)C(=NO)c1ccccc1-2)c1cccc(Cl)c1

IC50 (Bcl-2-related protein A1): > 20 µM (inactive)
IC50 [19]: 6.15 µM (active)
IC50 [20]: 1.52 µM (active)
IC50 [21]: 26.8 µM (inactive)
SMILES: COCCN=C(S)N=Nc1c(O)[nH]c2ccc([N+](=O)[O-])cc12

Continued, compound first:

SMILES: COc1ccc(-c2csc(/C(C#N)=C\c3ccc(O)c([N+](=O)[O-])c3)n2)cc1OC
IC50 [3]: 35.7 µM (inactive)
IC50 [4]: 51.3 µM (inactive)
IC50 [5]: > 66 µM (inactive)
IC50 [6]: 52.1 µM (inactive)

SMILES: Cc1ccc(Cn2c(=N)n(CC(O)COc3ccccc3)c3ccccc32)cc1 (stereo not given)
EC50 [7]: 4.91 µM (active)
EC50 [8]: 5.49 µM (active)
EC50 [9]: 9.05 µM (active)
EC50 [10]: 5.07 µM (active)
IC50 [11]: 5.55 µM (active)
EC50 [12]: > 92.5 µM (inactive)
EC50 (Mu-type opioid receptor): 35.1 µM (inactive)
EC50 [13]: > 92.5 µM (inactive)
IC50 [14]: 7.08 µM (active)
AC50 [15]: 2.46 µM (active)
AC50 [16]: 21.4 µM (active)
AC50 [17]: 3.9 µM (active)

SMILES: O=C(NCCCn1ccnc1)c1cnn2c1NC(c1ccccc1)CC2C(F)(F)F (stereo not given)
IC50 [11]: 8.15 µM (active)
IC50 [14]: 4.47 µM (active)

SMILES: N#CC(c1c(F)c(F)c(F)c(F)c1F)c1c(Cl)cnn(Cc2cccc3ccccc23)c1=O (stereo not given)
IC50 [1]: 1.56 µM (active)
IC50 [2]: 1.56 µM (active)
